Measured values as given in article PMC3686309 (ACS medicinal chemistry letters, 2013).

Assays:
[1] = Cytotoxicity against WI-38 fibroblast cells; assay type: cell-based, human; conditions: human, WI-38 fibroblast cells
WI-38 fibroblast cells = test: Cytotoxicity against WI-38 fibroblast cells; assay type: cell-based, human
WT IDH1 = WT IDH1 (Homo sapiens, UniProt O75874); test: WT IDH1 enzyme inhibition; assay type: biochemical; conditions: at 100 μM
WT IDH1, sequence (O75874 whole entry): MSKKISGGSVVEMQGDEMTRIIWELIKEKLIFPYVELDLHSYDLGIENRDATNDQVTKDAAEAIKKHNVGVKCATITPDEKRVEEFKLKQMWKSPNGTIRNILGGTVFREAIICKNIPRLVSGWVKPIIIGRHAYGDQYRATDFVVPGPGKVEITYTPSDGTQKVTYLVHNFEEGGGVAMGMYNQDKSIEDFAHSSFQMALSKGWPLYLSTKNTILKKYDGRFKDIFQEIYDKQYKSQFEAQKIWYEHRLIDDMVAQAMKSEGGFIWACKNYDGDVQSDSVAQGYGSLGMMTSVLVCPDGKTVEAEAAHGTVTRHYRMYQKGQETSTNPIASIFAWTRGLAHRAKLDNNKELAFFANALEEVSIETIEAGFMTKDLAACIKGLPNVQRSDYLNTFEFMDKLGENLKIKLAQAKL

SMILES	EC50 [1]	cytotoxicity against human cells (in words) (WI-38 fibroblast cells)	activity against WT IDH1 (WT IDH1)
Cc1cc(Cc2ccc(O)cc2)n(O)c(=O)c1 [Compound 3]	> 50 µM	do not have cytotoxicity	
Cc1cc(Cc2ccccc2)n(O)c(=O)c1 [Compound 2]	> 50 µM	do not have cytotoxicity	
O=c1cccc(Cc2ccccc2)n1O [Compound 4]	> 50 µM		
CC(C)c1cc(Cc2ccccc2)n(O)c(=O)c1 [Compound 5]	> 50 µM		
O=c1ccc(Cc2ccccc2)cn1O [Compound 1]			no activity
